Test results taken from ChEMBL document CHEMBL5104172, “Design, synthesis, and antibacterial activity of derivatives of Tryptophanyl-tRNA synthetase inhibitor indolmycin” (Eur J Med Chem, 2022).

Tests used:
[1] = Plasma protein binding in CD-1 mouse plasma incubated for 4 hrs and assessed as unbound fraction at 2 uM measured by LC/MS/MS analysis; assay type: ADME, cell-free
[2] = Plasma protein binding in CD-1 mouse plasma incubated for 4 hrs at 2 uM measured by LC/MS/MS analysis; assay type: ADME, cell-free; conditions: read-out: PPB (converted)
Staphylococcus aureus [3] = assay: Antibacterial activity against Staphylococcus aureus ATCC 29213 measured by liquid dilution method; assay type: functional
Staphylococcus aureus [4] = assay: Antibacterial activity against methicillin-resistant Staphylococcus aureus MRSA17-1 measured by liquid dilution method; assay type: functional
Staphylococcus aureus [5] = assay: Antibacterial activity against methicillin-resistant Staphylococcus aureus MRSA17-2 measured by liquid dilution method; assay type: functional
Staphylococcus aureus [6] = assay: Antibacterial activity against methicillin-resistant Staphylococcus aureus MRSA17-3 measured by liquid dilution method; assay type: functional
Staphylococcus aureus [7] = assay: Antibacterial activity against methicillin-resistant Staphylococcus aureus MRSA17-5 measured by liquid dilution method; assay type: functional
Staphylococcus aureus [8] = assay: Antibacterial activity against methicillin-resistant Staphylococcus aureus MRSA17-6 measured by liquid dilution method; assay type: functional
Staphylococcus aureus [9] = assay: Antibacterial activity against methicillin-resistant Staphylococcus aureus ATCC 33591 measured by liquid dilution method; assay type: functional
Staphylococcus aureus [10] = assay: Antibacterial activity against methicillin-resistant Staphylococcus aureus ATCC 43300 measured by liquid dilution method; assay type: functional
Staphylococcus aureus [11] = assay: Antibacterial activity against vancomycin-intermediate Staphylococcus aureus ATCC 700699 measured by liquid dilution method; assay type: functional
Staphylococcus aureus [12] = assay: Antibacterial activity against vancomycin-intermediate Staphylococcus aureus ATCC 700788 measured by liquid dilution method; assay type: functional
Staphylococcus aureus [13] = assay: Antibacterial activity against methicillin-sensitive Staphylococcus aureus MSSA17-1 measured by liquid dilution method; assay type: functional
Staphylococcus aureus [14] = assay: Antibacterial activity against methicillin-sensitive Staphylococcus aureus MSSA17-2 measured by liquid dilution method; assay type: functional
Staphylococcus aureus [15] = assay: Antibacterial activity against methicillin-sensitive Staphylococcus aureus MSSA17-3 measured by liquid dilution method; assay type: functional
[16] = test system: Staphylococcus epidermidis; assay: Antibacterial activity against methicillin-resistant Staphylococcus epidermidis MRSE17-1 measured by liquid dilution method; assay type: functional
[17] = test system: Staphylococcus epidermidis; assay: Antibacterial activity against methicillin-resistant Staphylococcus epidermidis MRSE17-2 measured by liquid dilution method; assay type: functional
[18] = test system: Staphylococcus epidermidis; assay: Antibacterial activity against methicillin-resistant Staphylococcus epidermidis MRSE17-3 measured by liquid dilution method; assay type: functional
[19] = test system: Staphylococcus epidermidis; assay: Antibacterial activity against methicillin-resistant Staphylococcus epidermidis MRSE17-4 measured by liquid dilution method; assay type: functional
[20] = test system: Staphylococcus epidermidis; assay: Antibacterial activity against methicillin-resistant Staphylococcus epidermidis MRSE17-6 measured by liquid dilution method; assay type: functional
[21] = test system: Staphylococcus epidermidis; assay: Antibacterial activity against methicillin-sensitive Staphylococcus epidermidis MSSE17-1 measured by liquid dilution method; assay type: functional
[22] = test system: Staphylococcus epidermidis; assay: Antibacterial activity against methicillin-sensitive Staphylococcus epidermidis MSSE17-2 measured by liquid dilution method; assay type: functional
[23] = test system: Staphylococcus epidermidis; assay: Antibacterial activity against methicillin-sensitive Staphylococcus epidermidis MSSE17-3 measured by liquid dilution method; assay type: functional
Enterococcus faecalis [24] = assay: Antibacterial activity against Enterococcus faecalis EFA17-1 measured by liquid dilution method; assay type: functional
Enterococcus faecalis [25] = assay: Antibacterial activity against Enterococcus faecalis ATCC 29212 measured by liquid dilution method; assay type: functional
Enterococcus faecium [26] = assay: Antibacterial activity against Enterococcus faecium EFM17-1 measured by liquid dilution method; assay type: functional
Enterococcus faecium [27] = assay: Antibacterial activity against Enterococcus faecium EFM17-2 measured by liquid dilution method; assay type: functional

CC(=O)CC(c1ccccc1)c1c(O)c2ccccc2oc1=O (configuration not stated) [WARFARIN]
0.098: fraction unbound at 4 h, 2 µM [1] | fraction unbound at 4 h, 2 µM [2]

CNC1=NC(=O)[C@H]([C@H](C)c2c[nH]c3c(F)cccc23)O1
4 µg/mL: MIC (Staphylococcus aureus [10]) | MIC (Staphylococcus aureus [12]) | MIC [22] | MIC [23] | MIC (Enterococcus faecium [27])
0.25 µg/mL: MIC [17]
0.5 µg/mL: MIC (Staphylococcus aureus [4]) | MIC (Staphylococcus aureus [5]) | MIC (Staphylococcus aureus [14]) | MIC (Staphylococcus aureus [15]) | MIC [16] | MIC [18] | MIC [19] | MIC [20]
2 µg/mL: MIC (Staphylococcus aureus [11]) | MIC [21] | MIC (Enterococcus faecalis [24]) | MIC (Enterococcus faecalis [25]) | MIC (Enterococcus faecium [26])
1 µg/mL: MIC (Staphylococcus aureus [6]) | MIC (Staphylococcus aureus [7]) | MIC (Staphylococcus aureus [8]) | MIC (Staphylococcus aureus [13])
8 µg/mL: MIC (Staphylococcus aureus [3]) | MIC (Staphylococcus aureus [9])

CNC1=NC(=O)[C@@H]([C@@H](C)c2c[nH]c3cc(F)ccc23)O1
> 128 µg/mL: MIC (Staphylococcus aureus [3]) | MIC (Staphylococcus aureus [4]) | MIC (Staphylococcus aureus [5]) | MIC (Staphylococcus aureus [6]) | MIC (Staphylococcus aureus [7]) | MIC (Staphylococcus aureus [8]) | MIC (Staphylococcus aureus [9]) | MIC (Staphylococcus aureus [10]) | MIC (Staphylococcus aureus [11]) | MIC (Staphylococcus aureus [12]) | MIC (Staphylococcus aureus [13]) | MIC (Staphylococcus aureus [14]) | MIC (Staphylococcus aureus [15]) | MIC [16] | MIC [17] | MIC [18] | MIC [19] | MIC [20] | MIC [21] | MIC [22] | MIC [23] | MIC (Enterococcus faecalis [24]) | MIC (Enterococcus faecalis [25]) | MIC (Enterococcus faecium [26]) | MIC (Enterococcus faecium [27])

CNC1=NC(=O)[C@@H]([C@@H](C)c2c[nH]c3cccc(C)c23)O1
> 128 µg/mL: MIC (Staphylococcus aureus [3]) | MIC (Staphylococcus aureus [4]) | MIC (Staphylococcus aureus [5]) | MIC (Staphylococcus aureus [6]) | MIC (Staphylococcus aureus [7]) | MIC (Staphylococcus aureus [8]) | MIC (Staphylococcus aureus [9]) | MIC (Staphylococcus aureus [10]) | MIC (Staphylococcus aureus [11]) | MIC (Staphylococcus aureus [12]) | MIC (Staphylococcus aureus [13]) | MIC (Staphylococcus aureus [14]) | MIC (Staphylococcus aureus [15]) | MIC [16] | MIC [17] | MIC [18] | MIC [19] | MIC [20] | MIC [21] | MIC [22] | MIC [23] | MIC (Enterococcus faecalis [24]) | MIC (Enterococcus faecalis [25]) | MIC (Enterococcus faecium [26]) | MIC (Enterococcus faecium [27])

CNC1=NC(=O)[C@@H]([C@@H](C)c2c[nH]c3cccc(Cl)c23)O1
> 128 µg/mL: MIC (Staphylococcus aureus [11]) | MIC [18] | MIC [21] | MIC [22] | MIC [23] | MIC (Enterococcus faecalis [24]) | MIC (Enterococcus faecalis [25]) | MIC (Enterococcus faecium [26]) | MIC (Enterococcus faecium [27])
128 µg/mL: MIC (Staphylococcus aureus [12]) | MIC [16] | MIC [17]
64 µg/mL: MIC (Staphylococcus aureus [3]) | MIC (Staphylococcus aureus [4]) | MIC (Staphylococcus aureus [5]) | MIC (Staphylococcus aureus [6]) | MIC (Staphylococcus aureus [7]) | MIC (Staphylococcus aureus [8]) | MIC (Staphylococcus aureus [9]) | MIC (Staphylococcus aureus [10]) | MIC (Staphylococcus aureus [13]) | MIC (Staphylococcus aureus [14]) | MIC (Staphylococcus aureus [15]) | MIC [19] | MIC [20]

CNC1=NC(=O)[C@H]([C@H](C)c2c[nH]c3cccc(Br)c23)O1
2 µg/mL: MIC (Staphylococcus aureus [4]) | MIC (Staphylococcus aureus [5]) | MIC (Staphylococcus aureus [7]) | MIC (Staphylococcus aureus [8]) | MIC (Staphylococcus aureus [10]) | MIC (Staphylococcus aureus [12]) | MIC (Staphylococcus aureus [13]) | MIC (Staphylococcus aureus [15]) | MIC [16] | MIC [17] | MIC [19] | MIC [20]
0.5 µg/mL: MIC [18]
1 µg/mL: MIC (Staphylococcus aureus [6]) | MIC (Staphylococcus aureus [11]) | MIC [21] | MIC [22] | MIC [23]
4 µg/mL: MIC (Staphylococcus aureus [3]) | MIC (Staphylococcus aureus [9]) | MIC (Staphylococcus aureus [14])
> 128 µg/mL: MIC (Enterococcus faecalis [24]) | MIC (Enterococcus faecalis [25]) | MIC (Enterococcus faecium [26]) | MIC (Enterococcus faecium [27])
